Data taken from patent US20130280270A1, “METHODS OF TREATING LUNG DISEASE AND OTHER INFLAMMATORY DISEASES” (Duke University, priority 2009, published 2013).
Where two headings read alike, the source gives them in different places.

What was measured:
[1] = test system: ozone-induced AHR; test: Ozone-induced AHR mouse model (asthma precipitated by air pollution); format: in vivo
Source text: (§1) We have carried out experiments with GRP blockade given as an intraperitoneal (IP) injection to prevent and/or treat AHR in several different mouse models of airways hyperreactivity (AHR) and/or inflammation: ozone-induced AHR as a model for asthma precipitated by air pollution, ovalbumin (OVA)-induced AHR as a model of allergic airways inflammation, and endotoxin (lipopolysaccharide, LPS)-induced AHR as a first step towards assessing infectious causes of asthma. These experiments used the small molecule GRP inhibitor, 77427, or a monoclonal anti-GRP blocking antibody, 2A 11. […] In the near future, we hope to test GRP blockade in additional mouse models of asthma, including: Mycoplasma infection, respiratory syncytial virus (RSV) infection, Aspergillus infection, and house dust mite exposure.
(§2) In contrast, mice were treated with dexamethasone (Dex), the standard of care for asthma, before ozone exposure.

[2] = test system: GRP receptor; conditions: lung slices from one non-human primate, 2 slices MCh + antagonist; morphological assessment; cited from earlier work
[3] = test system: neovascularization; conditions: on a molar basis (≈500 nM), compared with MoAb-2A11; cited from earlier work
[4] = test system: GRP-induced angiogenesis; conditions: in vitro and in vivo; cited from earlier work
[5] = test system: endothelial cell tube formation; conditions: Matrigel support matrix; cited from earlier work
[6] = biological target: T1, GRP (Homo sapiens, UniProt P07492); conditions: cited from earlier work
T1 sequence (P07492 24-50 limits assumed): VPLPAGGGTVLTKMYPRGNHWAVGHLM

[7] = F. Cuttitta, unpublished data; cited from earlier work
[8] = biological target: T1, GRP; conditions: prevention of antibody-ligand interaction; blocking GRP-induced IP3 production and Ca2+ flux; cited from earlier work
[9] = test system: chronic radiation pneumonitis; test: Chronic radiation pneumonitis in mice after 15 Gy thoracic radiation; format: in vivo; conditions: 500 nM 77427 twice a week IP following 15 Gy thoracic radiation
Description: We can also block chronic radiation pneumonitis in mice given 500 nM 77427 twice a week IP following 15 Gy thoracic radiation.

[10] = test system: cytokines; test: Cytokine levels in ozone and ovalbumin in vivo mouse models of asthma
Source text: We have carried out experiments with GRP blockade given as an intraperitoneal (IP) injection to prevent and/or treat AHR in several different mouse models of airways hyperreactivity (AHR) and/or inflammation: ozone-induced AHR as a model for asthma precipitated by air pollution, ovalbumin (OVA)-induced AHR as a model of allergic airways inflammation, and endotoxin (lipopolysaccharide, LPS)-induced AHR as a first step towards assessing infectious causes of asthma. […] The invention would extend to any compound able to block GRP signaling by either binding to GRP itself or to the GRP receptor, which are part of the same signal transduction cascade. In the near future, we hope to test GRP blockade in additional mouse models of asthma, including: Mycoplasma infection, respiratory syncytial virus (RSV) infection, Aspergillus infection, and house dust mite exposure.

[11] = test system: ovalbumin (OVA)-induced AHR; test: Ovalbumin (OVA)-induced AHR mouse model (allergic airways inflammation); format: in vivo
Source text: as §1, §2

C[C@@H]1C[C@H]2[C@@H]3CCC4=CC(=O)C=C[C@]4(C)[C@@]3(F)[C@@H](O)C[C@]2(C)[C@@]1(O)C(=O)CO [Dex, dexamethasone]
number of cytokines with significantly increased levels ([1]; treatment before ozone, IL-6, IL-12 (p40), TNFα): 3

[Leu^13-(ψ-CH2NH)-Leu^14]-bombesin
MCh-induced reduction of internal airway diameter (bronchoconstriction) of bronchi [2]: slightly reduced

Nc1nc(Cl)cc(NCCO)n1 [compound 77427]
suppressive response in stopping neovascularization [3]: equivalent suppressive response as MoAb-2A11
inhibition of GRP-induced angiogenesis [4]: potent inhibitor
blocking of GRP mediated endothelial cell tube formation [5]: effective blocker
airway hyperreactivity (AHR) ([1]; ozone model): abrogates
airways inflammation ([1]; ozone model): abrogates
blocks % of GRP ([6]; 5 nM 77427): 50%
blocks % of GRP ([6]; 50 nM 77427): 70%
blocks % of GRP ([6]; 500 nM 77427): 95%
half-life [7]: ~240 h
mimetic to MoAb-2A11 / antagonist to GRP in screen [8]: ideal mimetic to MoAb-2A11
chronic radiation pneumonitis [9]: block
Interleukin-2 (IL-2) ([10]; FIG. 2A): suppression
TNF-alpha ([10]; FIG. 2C): suppression
GM-CSF ([10]; FIG. 2D): suppression
IL-4 ([10]; FIG. 2E): suppression
IL-5 ([10]; FIG. 2F): suppression
IL-13 ([10]; FIG. 2G): suppression
IL-6 ([10]; FIG. 2H): suppression
IL-17 ([10]; FIG. 2I): suppression
MCP-1 ([10]; FIG. 2J): suppression
KC ([10]; FIG. 2K): suppression
VEGF ([10]; FIG. 2L): suppression
cytokines tested whose increased levels are significantly suppressed (P<0.0001) or abrogated ([10]; ozone and ovalbumin models, cytokines represent at least 5 inflammatory cell types): 21 of 21
airway hyperreactivity (AHR) [11]: abrogates
airways inflammation [11]: abrogates
